Common to all, as to format: physicochemical
Data set [1] is described as follows: Solubility of thymidine in aqueous liquids (300 mg in 3.0 mL, stirring, HPLC). The text has this:
The solubility of thymidine was investigated wherein the dissolving liquid was water, pH 3 buffered water, and deoxycytidine containing water. The deoxycytidine employed in the solubility studies is referred to as Form A deoxycytidine, e.g. as described in U.S. Patent Publication 2021/0054014, which is incorporated herein by reference. Form A deoxycytidine is characterized by an X-ray diffraction pattern comprising peaks at 8.4, 12.9, 14.2, 16.8, 18.4, 19.4, 28.4, 30.0, and 30.6 degrees two-theta (2θ) (+/−0.2). The X-ray diffraction pattern can be recorded using CuKα1 radiation.
(§1) The procedure involved adding 300 mg of the thymidine to 3.0 mL of liquid and stirring. The three liquids were water, water wherein 50 mg/mL of deoxycytidine had already been dissolved, and water buffered at about pH 3. The pH 3 buffered water was created by adding 821 mg of anhydrous citric acid and 213 mg of sodium citrate dehydrate to a 100 mL volumetric flask and adding water to the 100 mL mark while dissolving the solids. The deoxycytidine solution was created by adding 500 mg of deoxycytidine to a 10 mL volumetric flask and filling the flask with water while dissolving the solids, yielding a pH of 8.23 and a deoxycytidine concentration of about 50 mg/mL.
(§2) The liquids were stirred and samples were withdrawn at 5 mins, 10 mins, and 24 hours. At each time period 0.7 mL of the suspension was removed and subjected to filtration through a 0.45 μm PTFE filter, and 0.3 mL of the suspension was removed and centrifuged at 10,000 rpm for 2 minutes. The filtrate from the filtration and the supernatant from the centrifugation were subjected to high performance liquid chromatography (HPLC) to determine the amount of dissolved thymidine.
Solubilities are reported in mg/mL.

Data set [2] in a line: pH of thymidine suspensions after stirring. The protocol: as §1, §2
The pH of the suspensions were also recorded.

Data set [3] in a line: Reconstitution of thymidine in water with differing amounts of deoxycytidine (HPLC content after 2 minutes of mixing). The conditions noted are these: 6000 mg dT in 120 mL water. Here is the method: The solubility of thymidine in combination with different amounts of deoxycytidine was determined using HPLC and reconstitution methods as described below.
Each 50 mg/mL stock solution was prepared by adding 120 mL of purified water to a 400 mL beaker, stirring the water at 650 rpm, and then adding the amounts of thymidine and/or deoxycytidine as listed in the Table 3 below for each sample to form mixtures.
Each mixture was stirred at 650 rpm for about 1 minute, after which the stirring was reduced to 150 rpm and maintained at 150 rpm for about 1 minute. After about 2 minutes total, the mixture was filtered through a 0.45 μm syringe filter to obtain filtered stock solutions for each sample.
0.9 mg/mL intermediate solutions of each of the above samples were prepared by adding 1.0 mL of the respective filtered stock solution into a 50 mL volumetric flask and diluting to volume with a diluent (e.g., water) and mixing.
0.09 mg/mL working solutions of each of the above samples were prepared by adding 1.0 mL of the respective intermediate solution into a 10 mL volumetric flask and diluting to volume with a diluent (e.g., water) and mixing. The resulting mixture was transferred to an HPLC vial.
Working solutions for each of the above samples were subjected to HPLC analysis utilizing the conditions and parameters below and in Table 4. The data collected from the HPLC analysis was then used to calculate percent content of thymidine dissolved for each sample after 2 minutes of mixing. • Mobile Phase A: Purified Water (degassed by sonication) • […] (degassed by sonication)
[formula] • ASample=Peak area of dC or dT in the sample solution • WStd=Weight of dC or dT reference material [mg] • PurityStd=Purity of dC or dT reference material in %/100 • VSample=Dilution of sample solution corrected with dC or dT [mL] • LCFW=Correction factor of Label Claim and fill weight/0.4825 (2000 mg/4145 mg) • AStd=Mean peak area of dC or dT in the 6 injections of Std1 at beginning • WSample=Weight of sample (mg) • VStd=Dilution of standard solution [mL]/50 mL • 100=Conversion in % Results
The dC Level is the percentage of the mass of dC relative to dT. The dT Content is the percentage of dT in solution within 2 minutes of stirring in the presence of the indicated dC level.

Setting [4] is: Water with 50 mg/mL of deoxycytidine, stirring 24 hrs.
The mark [5] stands for this setting: pH 3 buffered water, stirring 10 mins.
[6] abbreviates: pH 3 buffered water, stirring 24 hrs.

`Cc1cn([C@H]2C[C@H](O)[C@@H](CO)O2)c(=O)[nH]c1=O` [thymidine]: the “thymidine solubility higher than the thymidine solubility in water” value in data set [1] (50 mg/mL deoxycytidine solution versus water, 5 minutes) is given as “about 38%”. Moreover, the Dissolved thymidine was found to be 65.62 mg/mL in data set [1] (setting [4]); 51.04 mg/mL in data set [1] (Water, stirring 24 hrs); 59.66 mg/mL in data set [1] (setting [5]); 52.04 mg/mL in data set [1] (setting [6]). Besides, the “thymidine solubility higher than in water” value in data set [1] (deoxycytidine liquid versus water, 10 minutes) is “about 58%”. Further, the pH of suspensions in data set [2] (Water with 50 mg/mL of deoxycytidine, stirring 5 mins) is listed as 7.3; in data set [2] (Water with 50 mg/mL of deoxycytidine, stirring 10 mins) it was 7.1; in data set [2] (setting [4]), 7.3; in data set [2] (Water, stirring 5 mins) it was 7.3; in data set [2] (Water, stirring 10 mins) it was 7.3; in data set [2] (Water, stirring 24 hrs), 7.3. In addition, the pH of suspensions in data set [2] (pH 3 buffered water, stirring 5 mins) is recorded as 3.2; in data set [2] (setting [5]), 3.1; in data set [2] (setting [6]) it was 3.1. Also, the “dT Content (percentage of dT in solution within 2 minutes of stirring)” value in data set [3] (dC Level 0 % (mass of dC relative to dT)) stood at 89.09%; in data set [3] (dC Level 10 %), 93.39%; in data set [3] (dC Level 20 %), 92.69%; in data set [3] (dC Level 40 %), 95.68%; in data set [3] (dC Level 80 %), 96.78%; in data set [3] (dC Level 100 %) it was 95.91%.
